pEC50: −log10 of the molar value.
Biological target: human GPR119 (Homo sapiens (Human), UniProt Q8TDV5)
Experiment: AlphaScreen cAMP assay in MIN6 cells stably transfected with human GPR119
Format: cell-based
Settings: Min-6/hGPR119 cells, 45 min incubation at room temperature
Description: The compounds of formula I according to the invention modulate the activity of the G-protein-coupled receptor GPR119. The effect of the compounds on the activation of GPR119 and on the stimulation of intracellular cAMP concentration is determined using the AlphaScreen cAMP Assay Kit (Cat. No. #6760625R) made by PerkinElmer.
MIN6 cells [Miyazaki J et al. Endocrinology. 1990 July; 127(1):126-32] are stably transfected with an expression vector for human GPR119 cDNA (Acc. No. NP_848566). Min-6/hGPR119 cells are cultured in DMEM, 10% FBS, 50 μM β-mercaptoethanol, 0.3 mg/mL Geniticin, 2 mM GlutaMAX at 37° C. 5% CO2. For the assay, the cells are seeded in Optiplates (white, 384-well, 160W-barcoded, TC, sterile with lid, Cat. No. #6007688 (Perkin Elmer); 10000 cells/well; 50 μl). The plates covered with lids are then incubated for 24 hours at 37° C./5% CO2. After the medium is aspirated from the wells completely, 10 μl of the test compound are added, the compounds are diluted using stimulating buffer (140 mM NaCl, 3.6 mM KCl, 0.5 mM NaH2PO4, 0.5 mM MgSO4, 1.5 mM CaCl2, 10 mM Hepes, 5 mM NaHCO3; pH 7.4. 0.5 mM IBMX and 0.1% BSA, the final DMSO concentration is 1%). After 45 minutes incubation at room temperature (approx. 20° C.), the cAMP concentrations are determined using the AlphaScreen cAMP Assay Kit (Cat. No. #6760625R from PerkinElmer).

Chain of human GPR119 (Q8TDV5 whole entry): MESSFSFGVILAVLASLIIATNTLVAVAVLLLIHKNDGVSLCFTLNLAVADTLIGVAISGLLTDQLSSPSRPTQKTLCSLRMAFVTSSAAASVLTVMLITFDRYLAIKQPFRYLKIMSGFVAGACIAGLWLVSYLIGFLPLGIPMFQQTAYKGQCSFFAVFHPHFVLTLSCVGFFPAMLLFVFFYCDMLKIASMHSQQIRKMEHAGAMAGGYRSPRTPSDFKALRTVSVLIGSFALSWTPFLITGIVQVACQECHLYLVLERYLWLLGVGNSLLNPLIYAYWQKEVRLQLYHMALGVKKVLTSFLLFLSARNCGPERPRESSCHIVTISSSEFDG

Row | SMILES | pEC50
1 | Cc1nc(-c2ccc(C(=O)N(C3CC3)C3CCN(C(=O)OC(C)(C)C)CC3)cc2)co1 [Example 5, 4-{Cyclopropyl-[4-(2-methyl-oxazol-4-yl)-benzoyl]-amino}-piperidine-1-carboxylic acid tert-butyl ester] | 6.05
2 | CC(C)(C)OC(=O)N1CCC(N(C(=O)c2ccc(-c3ccnnc3)cc2)C2CC2)CC1 [Example 23, 4-[Cyclopropyl-(4-pyridazin-4-yl-benzoyl)-amino]-piperidine-1-carboxylic acid tert-butyl ester] | 6.63
3 | CC(C)(C)OC(=O)N1CCC(N(C(=O)c2ccc(-c3ocnc3I)cc2)C2CC2)CC1 [Example 4, 4-{Cyclopropyl-[4-(4-iodo-oxazol-5-yl)-benzoyl]-amino}-piperidine-1-carboxylic acid tert-butyl ester] | 6.09
4 | CC(C)(C)OC(=O)N1CC[C@@H](N(C(=O)c2ccc(-c3cnco3)cc2)C2CC2)[C@H](F)C1 (single isomer, unassigned) [Example 39] | 6.20
5 | CC1CC(N(C(=O)c2ccc(-c3cnco3)cc2)C2CC2)CCN1C(=O)OC(C)(C)C (centres unmarked) [Example 1, 4-[Cyclopropyl-(4-oxazol-5-yl-benzoyl)-amino]-2-methyl-piperidine-1-carboxylic acid tert-butyl ester] | 6.80
6 | O=C(OC1CCOCC1)N1CCC(N(C(=O)c2ccc(-c3cnco3)cc2)C2CC2)CC1 [Example 11, 4-[Cyclopropyl-(4-oxazol-5-yl-benzoyl)-amino]-piperidine-1-carboxylic acid tetrahydro-pyran-4-yl ester] | 6.29
7 | CC(C)(C)OC(=O)N1CCC(N(C(=O)c2ccc(-c3cncnc3)cc2)C2CC2)CC1 [Example 69, 4-[Cyclopropyl-(4-pyrimidin-5-yl-benzoyl)-amino]-piperidine-1-carboxylic acid tert-butyl ester] | 6.80
8 | CC(C)(C)OC(=O)N1CCC(N(C(=O)c2ccc(-c3cnco3)c([N+](=O)[O-])c2)C2CC2)CC1 [Example 7, 4-[Cyclopropyl-(3-nitro-4-oxazol-5-yl-benzoyl)-amino]-piperidine-1-carboxylic acid tert-butyl ester] | 7.11
9 | CC(C)(C)OC(=O)N1CCC(N(C(=O)c2ccc(-c3noc(Cc4ccccc4)n3)cc2)C2CC2)CC1 [Example 68, 4-{[4-(5-Benzyl-[1,2,4]oxadiazol-3-yl)-benzoyl]-cyclopropyl-amino}-piperidine-1-carboxylic acid tert-butyl ester] | 6.72
10 | CC(C)(C)OC(=O)N1CCC(N(C(=O)c2ccc(-c3ccc(C(=O)O)nc3)cc2)C2CC2)CC1 [Example 115, 5-{4[(1-tert-Butoxycarbonyl-piperidin-4-yl)-cyclopropyl-carbamoyl]-phenyl}-pyridine-2-carboxylic acid] | 5.96
11 | CC(C)(C)OC(=O)N1CCC(N(C(=O)c2ccc(-c3cnco3)cc2)C2CC2)CC1 [Example 53, 4-[Cyclopropyl-(4-oxazol-5-yl-benzoyl)-amino]-piperidine-1-carboxylic acid tert-butyl ester] | 7.48
12 | CC(C)(C)OC(=O)N1CCC(N(C(=O)c2ccc(-c3cn[nH]c3)cc2)C2CC2)CC1 [Example 12, 4-{Cyclopropyl-[4-(1H-pyrazol-4-yl)-benzoyl]-amino}-piperidine-1-carboxylic acid tert-butyl ester] | 6.62
13 | CC(C)(C)OC(=O)N1CCC(N(C(=O)c2cc(F)c(-c3cnco3)c(F)c2)C2CC2)CC1 [Example 33, 4-[Cyclopropyl-(3,5-difluoro-4-oxazol-5-yl-benzoyl)-amino]-piperidine-1-carboxylic acid tert-butyl ester] | 8.05
14 | COC1CN(C(=O)OC(C)(C)C)CCC1N(C(=O)c1ccc(-c2cnco2)cc1)C1CC1 (centres unmarked) [Example 45, 4-[Cyclopropyl-(4-oxazol-5-yl-benzoyl)-amino]-3-methoxy-piperidine-1-carboxylic acid tert-butyl ester] | 7.82
15 | CN(C)C(=O)Nc1nc(-c2ccc(C(=O)N(C3CC3)C3CCN(C(=O)OC(C)(C)C)CC3)cc2)ns1 [Example 72, 4-(Cyclopropyl-{4-[5-(3,3-dimethyl-ureido)-[1,2,4]thiadiazol-3-yl]-benzoyl}-amino)-piperidine-1-carboxylic acid tert-butyl ester] | 5.93
16 | Cc1ccc(-c2ccc(C(=O)N(C3CC3)C3CCN(C(=O)OC(C)(C)C)CC3)cc2)nn1 [Example 16, 4-{Cyclopropyl-[4-(6-methyl-pyridazin-3-yl)-benzoyl]-amino}-piperidine-1-carboxylic acid tert-butyl ester] | 7.12
17 | CC(C)(C)OC(=O)N1CC[C@@H](N(C(=O)c2ccc(-c3cnco3)cc2)C2CC2)[C@@H](F)C1 (single isomer, unassigned) [Example 41] | 7.52
18 | CC(C)(C)OC(=O)N1CCC(N(C(=O)c2ccc(-c3ccncc3C#N)cc2)C2CC2)CC1 [Example 29, 4-{[4-(3-Cyano-pyridin-4-yl)-benzoyl]-cyclopropyl-amino}-piperidine-1-carboxylic acid tert-butyl ester] | 7.57

Next, values leading:

Row | pEC50 | SMILES
19 | 5.80 | COC(=O)N1CCC(N(C(=O)c2ccc(-c3cnco3)cc2)C2CC2)CC1 [Example 116, 4-[Cyclopropyl-(4-oxazol-5-yl-benzoyl)-amino]-piperidine-1-carboxylic acid methyl ester]
20 | 6.99 | C=CCOC(=O)N1CCC(N(C(=O)c2ccc(-c3cnco3)cc2)C2CC2)CC1 [Example 127, 4-[Cyclopropyl-(4-oxazol-5-yl-benzoyl)-amino]-piperidine-1-carboxylic acid allyl ester]
21 | 7.17 | CC(C)(C)OC(=O)N1CCC(N(C(=O)c2ccc(-c3ccc(CO)cc3)cc2)C2CC2)CC1 [Example 98, 4-[Cyclopropyl-(4′-hydroxymethyl-biphenyl-4-carbonyl)-amino]-piperidine-1-carboxylic acid tert-butyl ester]
22 | 7.35 | CC(C)COC(=O)N1CCC(N(C(=O)c2ccc(-c3cnco3)cc2)C2CC2)CC1 [Example 125, 4-[Cyclopropyl-(4-oxazol-5-yl-benzoyl)-amino]-piperidine-1-carboxylic acid isobutyl ester]
23 | 6.30 | CNC(=O)Nc1nc(-c2ccc(C(=O)N(C3CC3)C3CCN(C(=O)OC(C)(C)C)CC3)cc2)ns1 [Example 73, 4-(Cyclopropyl-{4-[5-(3-methyl-ureido)-[1,2,4]thiadiazol-3-yl]-benzoyl}-amino)-piperidine-1-carboxylic acid tert-butyl ester]
24 | 6.40 | COc1ccc(-c2ccc(C(=O)N(C3CC3)C3CCN(C(=O)OC(C)(C)C)CC3)cc2)cc1 [Example 86, 4-[Cyclopropyl-(4′-methoxy-biphenyl-4-carbonyl)-amino]-piperidine-1-carboxylic acid tert-butyl ester]
25 | 6.75 | CC(C)(C)OC(=O)N1CCC(N(C(=O)c2ccc(-c3ccc(S(C)(=O)=O)cc3)cc2)C2CC2)CC1 [Example 93, 4-[Cyclopropyl-(4′-methanesulfonyl-biphenyl-4-carbonyl)-amino]-piperidine-1-carboxylic acid tert-butyl ester]
26 | 7.35 | CC(C)(C)COC(=O)N1CCC(N(C(=O)c2ccc(-c3cnco3)cc2)C2CC2)CC1 [Example 121, 4-[Cyclopropyl-(4-oxazol-5-yl-benzoyl)-amino]-piperidine-1-carboxylic acid 2,2-dimethyl-propyl ester]
27 | 7.29 | CCNC(=O)c1ccc(-c2ccc(C(=O)N(C3CC3)C3CCN(C(=O)OC(C)(C)C)CC3)cc2)cc1 [Example 103, 4-[Cyclopropyl-(4′-ethylcarbamoyl-biphenyl-4-carbonyl)-amino]-piperidine-1-carboxylic acid tert-butyl ester]
28 | 6.40 | CC(=O)Nc1nnc(-c2ccc(C(=O)N(C3CC3)C3CCN(C(=O)OC(C)(C)C)CC3)cc2)s1 [Example 77, 4-{[4-(5-Acetylamino-[1,3,4]thiadiazol-2-yl)-benzoyl]-cyclopropyl-amino}-piperidine-1-carboxylic acid tert-butyl ester]
29 | 6.88 | COc1ccc(-c2ccc(C(=O)N(C3CC3)C3CCN(C(=O)OC(C)(C)C)CC3)cc2)cn1 [Example 96, 4-{Cyclopropyl-[4-(6-methoxy-pyridin-3-yl)-benzoyl]-amino}-piperidine-1-carboxylic acid tert-butyl ester]
30 | 6.95 | CC(C)OC(=O)N1CCC(N(C(=O)c2ccc(-c3ccc(C(N)=O)cc3)cc2)C2CC2)CC1 [Example 129, 4-[(4′-Carbamoyl-biphenyl-4-carbonyl)-cyclopropyl-amino]-piperidine-1-carboxylic acid isopropyl ester]
31 | 6.50 | CC(C)(C)OC(=O)N1CCC(N(C(=O)c2ccc(-c3ccccc3C#N)cc2)C2CC2)CC1 [Example 94, 4-[(2′-Cyano-biphenyl-4-carbonyl)-cyclopropyl-amino]-piperidine-1-carboxylic acid tert-butyl ester]
32 | 6.79 | CC(C)(C)NS(=O)(=O)c1ccccc1-c1ccc(C(=O)N(C2CC2)C2CCN(C(=O)OC(C)(C)C)CC2)cc1 [Example 97, 4-[(2′-tert-Butylsulfamoyl-biphenyl-4-carbonyl)-cyclopropyl-amino]-piperidine-1-carboxylic acid tert-butyl ester]

Reference: US9469631B2 (Boehringer Ingelheim International GmbH, priority 2012, dated 2016)
